Values after ≈ are worked out from the molar mass of the structure shown.
Assays:
Type in all cases: functional
[1] = system: Bacteroides stercoris; experiment: Antibacterial activity against Bacteroides stercoris assessed as percent resistant isolates by agar dilution method in presence of Tazobactam
[2] = system: Parabacteroides merdae; experiment: Antibacterial activity against Bacteroides merdae assessed as percent resistant isolates by agar dilution method in presence of Tazobactam
[3] = system: Bacteroides eggerthii; experiment: Antibacterial activity against Bacteroides eggerthii assessed as percent resistant isolates by agar dilution method in presence of Tazobactam
[4] = system: Bacteroides sp.; experiment: Antibacterial activity against Bacteroides spp. assessed as percent resistant isolates by agar dilution method in presence of Tazobactam
[5] = system: Bacteroides ovatus; experiment: Antibacterial activity against Bacteroides ovatus assessed as percent resistant isolates by agar dilution method in presence of Tazobactam
[6] = system: Parabacteroides distasonis; experiment: Antibacterial activity against Bacteroides distasonis assessed as percent resistant isolates by agar dilution method in presence of Tazobactam
[7] = system: Bacteroides caccae; experiment: Antibacterial activity against Bacteroides caccae assessed as percent resistant isolates by agar dilution method in presence of Tazobactam
[8] = system: Phocaeicola vulgatus; experiment: Antibacterial activity against Bacteroides vulgatus assessed as percent resistant isolates by agar dilution method in presence of Tazobactam
[9] = system: Bacteroides uniformis; experiment: Antibacterial activity against Bacteroides uniformis assessed as percent resistant isolates by agar dilution method in presence of Tazobactam
[10] = system: Bacteroides thetaiotaomicron; experiment: Antibacterial activity against Bacteroides thetaiotaomicron assessed as percent resistant isolates by agar dilution me in presence of Tazobactam thod
[11] = system: Bacteroides fragilis; experiment: Antibacterial activity against Bacteroides fragilis assessed as percent resistant isolates by agar dilution method in presence of Tazobactam
[12] = system: Bacteroides stercoris; experiment: Antibacterial activity against Bacteroides stercoris isolate by agar dilution method in presence of Tazobactam
[13] = system: Parabacteroides merdae; experiment: Antibacterial activity against Bacteroides merdae isolate by agar dilution method in presence of Tazobactam
[14] = system: Bacteroides eggerthii; experiment: Antibacterial activity against Bacteroides eggerthii isolate by agar dilution method in presence of Tazobactam
[15] = system: Bacteroides sp.; experiment: Antibacterial activity against Bacteroides spp. isolate by agar dilution method in presence of Tazobactam
[16] = system: Bacteroides ovatus; experiment: Antibacterial activity against Bacteroides ovatus isolate by agar dilution method in presence of Tazobactam
[17] = system: Parabacteroides distasonis; experiment: Antibacterial activity against Bacteroides distasonis isolate by agar dilution method in presence of Tazobactam
[18] = system: Bacteroides caccae; experiment: Antibacterial activity against Bacteroides caccae isolate by agar dilution method in presence of Tazobactam
[19] = system: Phocaeicola vulgatus; experiment: Antibacterial activity against Bacteroides vulgatus isolate by agar dilution method in presence of Tazobactam
[20] = system: Bacteroides uniformis; experiment: Antibacterial activity against Bacteroides uniformis isolate by agar dilution method in presence of Tazobactam
[21] = system: Bacteroides thetaiotaomicron; experiment: Antibacterial activity against Bacteroides thetaiotaomicron isolate by agar dilution method in presence of Tazobactam
[22] = system: Bacteroides fragilis; experiment: Antibacterial activity against Bacteroides fragilis isolate by agar dilution method in presence of Tazobactam
[23] = system: Bacteroides fragilis; experiment: Antibacterial activity against Bacteroides fragilis isolate by agar dilution method
[24] = system: Bacteroides stercoris; experiment: Antibacterial activity against Bacteroides stercoris assessed as percent resistant isolates by agar dilution method; details: pooled result: one value given for 4 cell lines, strains, targets or settings
[25] = system: Bacteroides ovatus; experiment: Antibacterial activity against Bacteroides ovatus assessed as percent resistant isolates by agar dilution method
[26] = system: Parabacteroides distasonis; experiment: Antibacterial activity against Bacteroides distasonis assessed as percent resistant isolates by agar dilution method
[27] = system: Bacteroides caccae; experiment: Antibacterial activity against Bacteroides caccae assessed as percent resistant isolates by agar dilution method
[28] = system: Phocaeicola vulgatus; experiment: Antibacterial activity against Bacteroides vulgatus assessed as percent resistant isolates by agar dilution method
[29] = system: Bacteroides uniformis; experiment: Antibacterial activity against Bacteroides uniformis assessed as percent resistant isolates by agar dilution method
[30] = system: Bacteroides thetaiotaomicron; experiment: Antibacterial activity against Bacteroides thetaiotaomicron assessed as percent resistant isolates by agar dilution method
[31] = system: Bacteroides fragilis; experiment: Antibacterial activity against Bacteroides fragilis assessed as percent resistant isolates by agar dilution method
[32] = system: Bacteroides stercoris; experiment: Antibacterial activity against Bacteroides stercoris isolate by agar dilution method
[33] = system: Parabacteroides merdae; experiment: Antibacterial activity against Bacteroides merdae isolate by agar dilution method
[34] = system: Bacteroides eggerthii; experiment: Antibacterial activity against Bacteroides eggerthii isolate by agar dilution method
[35] = system: Bacteroides sp.; experiment: Antibacterial activity against Bacteroides spp. isolate by agar dilution method
[36] = system: Bacteroides ovatus; experiment: Antibacterial activity against Bacteroides ovatus isolate by agar dilution method
[37] = system: Parabacteroides distasonis; experiment: Antibacterial activity against Bacteroides distasonis isolate by agar dilution method
[38] = system: Phocaeicola vulgatus; experiment: Antibacterial activity against Bacteroides vulgatus isolate by agar dilution method
[39] = system: Bacteroides caccae; experiment: Antibacterial activity against Bacteroides caccae isolate by agar dilution method
[40] = system: Bacteroides uniformis; experiment: Antibacterial activity against Bacteroides uniformis isolate by agar dilution method
[41] = system: Bacteroides thetaiotaomicron; experiment: Antibacterial activity against Bacteroides thetaiotaomicron isolate by agar dilution method

SMILES: CCN1CCN(C(=O)N[C@@H](C(=O)N[C@@H]2C(=O)N3[C@@H]2SC(C)(C)[C@@H]3C(=O)O)c2ccccc2)C(=O)C1=O [PIPERACILLIN]
- Activity [1]: 0%
- Activity [2]: 0%
- Activity [3]: 0%
- Activity [4]: 0%
- Activity [5]: 0%
- Activity [6]: 0%
- Activity [7]: 2.2%
- Activity [8]: 0%
- Activity [9]: 0%
- Activity [10]: 3.3%
- Activity [11]: 0.5%
- MIC50 [12]: 8 mg/L
- MIC90 [12]: 32 mg/L
- MIC50 [13]: 8 mg/L
- MIC90 [13]: 32 mg/L
- MIC50 [14]: 8 mg/L
- MIC90 [14]: 32 mg/L
- MIC50 [15]: 8 mg/L
- MIC90 [15]: 32 mg/L
- MIC50 [16]: 8 mg/L
- MIC90 [16]: 16 mg/L
- MIC50 [17]: 16 mg/L
- MIC90 [17]: 16 mg/L
- MIC50 [18]: 8 mg/L
- MIC90 [18]: 32 mg/L
- MIC50 [19]: 8 mg/L
- MIC90 [19]: 32 mg/L
- MIC50 [20]: 4 mg/L
- MIC90 [20]: 16 mg/L
- MIC50 [21]: 16 mg/L
- MIC90 [21]: 32 mg/L
- MIC50 [22]: 1 mg/L
- MIC90 [22]: 8 mg/L

SMILES: O=C(N[C@H](CO)[C@H](O)c1ccc([N+](=O)[O-])cc1)C(Cl)Cl [CHLORAMPHENICOL]
- MIC50 [23]: 4 mg/L (≈ 12.4 µM)
- MIC90 [23]: 8 mg/L (≈ 24.8 µM)
- Activity [24]: 0%
- Activity [25]: 0%
- Activity [26]: 0%
- Activity [27]: 0%
- Activity [28]: 0%
- Activity [29]: 0%
- Activity [30]: 0%
- Activity [31]: 0%
- MIC50 [32]: 4 mg/L (≈ 12.4 µM)
- MIC90 [32]: 8 mg/L (≈ 24.8 µM)
- MIC50 [33]: 4 mg/L (≈ 12.4 µM)
- MIC90 [33]: 8 mg/L (≈ 24.8 µM)
- MIC50 [34]: 4 mg/L (≈ 12.4 µM)
- MIC90 [34]: 8 mg/L (≈ 24.8 µM)
- MIC50 [35]: 4 mg/L (≈ 12.4 µM)
- MIC90 [35]: 8 mg/L (≈ 24.8 µM)
- MIC50 [36]: 4 mg/L (≈ 12.4 µM)
- MIC90 [36]: 8 mg/L (≈ 24.8 µM)
- MIC50 [37]: 8 mg/L (≈ 24.8 µM)
- MIC90 [37]: 8 mg/L (≈ 24.8 µM)
- MIC50 [38]: 4 mg/L (≈ 12.4 µM)
- MIC90 [38]: 8 mg/L (≈ 24.8 µM)
- MIC50 [39]: 4 mg/L (≈ 12.4 µM)
- MIC90 [39]: 8 mg/L (≈ 24.8 µM)
- MIC50 [40]: 4 mg/L (≈ 12.4 µM)
- MIC90 [40]: 8 mg/L (≈ 24.8 µM)
- MIC50 [41]: 4 mg/L (≈ 12.4 µM)
- MIC90 [41]: 8 mg/L (≈ 24.8 µM)

SMILES: CO[C@@]1(NC(=O)Cc2cccs2)C(=O)N2C(C(=O)O)=C(COC(N)=O)CS[C@@H]21 [CEFOXITIN]
- MIC50 [23]: 8 mg/L (≈ 18.7 µM)
- MIC90 [23]: 32 mg/L (≈ 74.9 µM)
- Activity [24]: 23.9%
- Activity [25]: 12.2%
- Activity [26]: 25.6%
- Activity [27]: 8.9%
- Activity [28]: 17%
- Activity [29]: 9.4%
- Activity [30]: 23.6%
- Activity [31]: 6.4%
- MIC50 [32]: 16 mg/L (≈ 37.4 µM)
- MIC90 [32]: 64 mg/L (≈ 150 µM)
- MIC50 [33]: 16 mg/L (≈ 37.4 µM)
- MIC90 [33]: 64 mg/L (≈ 150 µM)
- MIC50 [34]: 16 mg/L (≈ 37.4 µM)
- MIC90 [34]: 64 mg/L (≈ 150 µM)
- MIC50 [35]: 16 mg/L (≈ 37.4 µM)
- MIC90 [35]: 64 mg/L (≈ 150 µM)
- MIC50 [36]: 16 mg/L (≈ 37.4 µM)
- MIC90 [36]: 64 mg/L (≈ 150 µM)
- MIC50 [37]: 32 mg/L (≈ 74.9 µM)
- MIC90 [37]: 64 mg/L (≈ 150 µM)
- MIC50 [38]: 16 mg/L (≈ 37.4 µM)
- MIC90 [38]: 64 mg/L (≈ 150 µM)
- MIC50 [39]: 16 mg/L (≈ 37.4 µM)
- MIC90 [39]: 32 mg/L (≈ 74.9 µM)
- MIC50 [40]: 16 mg/L (≈ 37.4 µM)
- MIC90 [40]: 32 mg/L (≈ 74.9 µM)
- MIC50 [41]: 32 mg/L (≈ 74.9 µM)
- MIC90 [41]: 64 mg/L (≈ 150 µM)

Source: ChEMBL document CHEMBL1275453, “Resistance trends of the Bacteroides fragilis group over a 10-year period, 1997 to 2006, in Madrid, Spain” (2008)
